Results reported in ChEMBL document CHEMBL5608141, “Identification of compartment-specific drug sensitivities in CRC organoid-stroma co-cultures” (2024).

Columns and labels:
Type in all cases: functional, Homo sapiens
Parameters in all cases: dose or concentration left out as unconfirmed
[1] = system: Colon cancer organoid; experiment: Identification of compartment-specific drug sensitivities in O06 CRC organoid-stroma F06 CAF co-cultures. Organoid is transduced with Lucferase2-P2A-EGFP lentivirus, fibroblast with Renilla-dsRed lentivirus. Dual-Glo Luciferase assay is used to report viability data.
[2] = system: Colon cancer organoid; experiment: Identification of compartment-specific drug sensitivities in O14 CRC organoid-stroma F14 CAF co-cultures. Organoid is transduced with Lucferase2-P2A-EGFP lentivirus, fibroblast with Renilla-dsRed lentivirus. Dual-Glo Luciferase assay is used to report viability data.
[3] = system: Colon cancer organoid; experiment: Identification of compartment-specific drug sensitivities in O20 CRC organoid-stroma F20 CAF co-cultures. Organoid is transduced with Lucferase2-P2A-EGFP lentivirus, fibroblast with Renilla-dsRed lentivirus. Dual-Glo Luciferase assay is used to report viability data.
[4] = Transduced with Lucferase2-P2A-EGFP lentivirus
[5] = Transduced with Renilla-dsRed lentivirus

Cc1noc([C@H]2C[C@@H](c3ccc(C(F)(F)F)cc3)CN(C(=O)N3CCS(=O)(=O)C3)C2)n1 [BAY-448] was tested, and the “Cell Viability” value [1, 4] was 64.3289%, the “Cell Viability” value [1, 5] was 114.596% and the “Cell Viability” value [2, 4] was 114.601%. For the same molecule, the “Cell Viability” value [2, 5] was 94.3368%, the “Cell Viability” value [3, 4] was 115.252% and the “Cell Viability” value [3, 5] was 84.5218%.
CC1=C(C#N)C(c2ccc3[nH]nc(C)c3c2)C(C#N)=C(C)N1 [BAY-474] was tested, and the “Cell Viability” value [1, 4] was 116.723%, the “Cell Viability” value [1, 5] was 162.783% and the “Cell Viability” value [2, 4] was 60.4688%. The “Cell Viability” value [2, 5] was 119.272%, the “Cell Viability” value [3, 4] was 81.7867% and the “Cell Viability” value [3, 5] was 102.241%.
For CC(=O)C1=C(C)N(c2cccc(C(F)(F)F)c2)C(=O)N[C@H]1c1ccc(C#N)nc1 [BAY-677], the “Cell Viability” value [1, 4] was 73.3465%, the “Cell Viability” value [1, 5] was 89.4043% and the “Cell Viability” value [2, 4] was 123.312%. For the same molecule, the “Cell Viability” value [2, 5] was 108.035%, the “Cell Viability” value [3, 4] was 134.265% and the “Cell Viability” value [3, 5] was 107.791%.
For CC(=O)C1=C(C)N(c2cccc(C(F)(F)F)c2)C(=O)N[C@@H]1c1ccc(C#N)nc1 [BAY-678], the “Cell Viability” value [1, 4] was 95.8481%, the “Cell Viability” value [1, 5] was 136.382% and the “Cell Viability” value [2, 4] was 146.251%. The “Cell Viability” value [2, 5] was 119.353%, the “Cell Viability” value [3, 4] was 140.099% and the “Cell Viability” value [3, 5] was 133.591%.
Cc1nc(C2CCN(C(=O)c3ccc(OC(F)(F)F)cc3N)CC2)c2ncc(N3CCN(C)CC3)cc2n1 [BAY-693] was tested, and the “Cell Viability” value [1, 4] was 114.208%, the “Cell Viability” value [1, 5] was 166.908% and the “Cell Viability” value [2, 4] was 77.0919%. The “Cell Viability” value [2, 5] was 74.1942%, the “Cell Viability” value [3, 4] was 93.6142% and the “Cell Viability” value [3, 5] was 129.276%.
For O=C(O)[C@@H]1[C@@H](Cn2nnc3ccccc3c2=O)CC[C@H]1C(=O)c1ccc(OCCC2CCOCC2)cc1 [BAY-694], the “Cell Viability” value [1, 4] was 99.0718%, the “Cell Viability” value [1, 5] was 68.3581% and the “Cell Viability” value [2, 4] was 127.223%. For the same molecule, the “Cell Viability” value [2, 5] was 103.773%, the “Cell Viability” value [3, 4] was 92.0939% and the “Cell Viability” value [3, 5] was 91.7477%.
For O=C(NCc1ncc(C(F)(F)F)cc1Cl)c1ccc2c(c1)C1(CCS(=O)(=O)CC1)[C@@H](C1CC1)N2S(=O)(=O)c1ccc(F)cc1 [BAY-786], the “Cell Viability” value [1, 4] was 81.2723%, the “Cell Viability” value [1, 5] was 52.1511% and the “Cell Viability” value [2, 4] was 85.8201%. The “Cell Viability” value [2, 5] was 92.0831%, the “Cell Viability” value [3, 4] was 102.274% and the “Cell Viability” value [3, 5] was 106.984%.
Cc1c(NC(=O)c2cc(C(N)=O)nc3cc(F)ccc23)c(C(F)(F)F)nn1Cc1ccc(C#N)cc1 [BAY-876] was tested, and the “Cell Viability” value [1, 4] was 11.8045%, the “Cell Viability” value [1, 5] was 337.56% and the “Cell Viability” value [2, 4] was 20.1463%. The “Cell Viability” value [2, 5] was 59.1997%, the “Cell Viability” value [3, 4] was 13.842% and the “Cell Viability” value [3, 5] was 190.785%.
For CN1CCN(c2cnc3c(C4CCN(C(=O)c5ccc(OC(F)(F)F)cc5N)CC4)ncnc3c2)CC1 [BAY-885], the “Cell Viability” value [1, 4] was 128.922%, the “Cell Viability” value [1, 5] was 132.533% and the “Cell Viability” value [2, 4] was 91.6174%. For the same molecule, the “Cell Viability” value [2, 5] was 96.8328%, the “Cell Viability” value [3, 4] was 78.4575% and the “Cell Viability” value [3, 5] was 141.163%.
O=C(Nc1cnc(Oc2ccc(F)cc2)nc1)N1CCc2ncccc2[C@@H]1c1ccc(F)cc1 [BAY-899] was tested, and the “Cell Viability” value [1, 4] was 92.2798%, the “Cell Viability” value [1, 5] was 100.101% and the “Cell Viability” value [2, 4] was 105.834%. The “Cell Viability” value [2, 5] was 99.8567%, the “Cell Viability” value [3, 4] was 151.912% and the “Cell Viability” value [3, 5] was 104.61%.
With CC1=C(C#N)C(c2ccc3c(c2)c(NC(=O)c2ccccc2C)nn3C)C(C#N)=C(C)N1 [BAY-974] the “Cell Viability” value [1, 4] was 90.4588%, the “Cell Viability” value [1, 5] was 87.5124% and the “Cell Viability” value [2, 4] was 92.3005%. For the same molecule, the “Cell Viability” value [2, 5] was 117.089%, the “Cell Viability” value [3, 4] was 105.235% and the “Cell Viability” value [3, 5] was 128.576%.
With C[C@H](c1ccnc(Nc2nc3ccc(-c4cc(N(C)C)ncn4)cc3[nH]2)c1)N1CCN(C(=O)CC(F)(F)F)CC1 [BAY-985] the “Cell Viability” value [1, 4] was 137.072%, the “Cell Viability” value [1, 5] was 142.411% and the “Cell Viability” value [2, 4] was 130.529%. The “Cell Viability” value [2, 5] was 136.274%, the “Cell Viability” value [3, 4] was 129.711% and the “Cell Viability” value [3, 5] was 125.86%.
With NS(=O)(=O)c1cc(NC(=O)Cc2ccccc2)ccc1Oc1cccc(Cl)c1 [BAY-1797] the “Cell Viability” value [1, 4] was 89.5842%, the “Cell Viability” value [1, 5] was 298.319% and the “Cell Viability” value [2, 4] was 92.6745%. The “Cell Viability” value [2, 5] was 115.956%, the “Cell Viability” value [3, 4] was 89.0927% and the “Cell Viability” value [3, 5] was 86.996%.
In the case of CCc1ccccc1C(=O)Nc1n[nH]c2c(C)c(F)c(C3C(C#N)=C(C)N(C)C(C)=C3C#N)cc12 [BAY-3827], the “Cell Viability” value [1, 4] is reported as 43.7855%, the “Cell Viability” value [1, 5] is reported as 108.902% and the “Cell Viability” value [2, 4] is reported as 97.9341%. For the same molecule, the “Cell Viability” value [2, 5] was 94.3175%, the “Cell Viability” value [3, 4] was 74.4041% and the “Cell Viability” value [3, 5] was 157.673%.
